According to publication PMC7887755, “Structure–Activity Relationships of Pyrazolo[1,5-a]pyrimidin-7(4H)-ones as Antitubercular Agents” (ACS Infectious Diseases, 2021):
Values after ≈ are worked out from the molar mass of the structure shown. Values joined by “and” are separate entries in the source; they are usually repeats but may differ in a detail not shown here. Identical values can stand only once. Like-named read-outs stand apart in the source and are kept apart here.

What was measured:
[1] = Microsomal stability, human; type: in vitro ADME; settings: human liver microsomes, read-out: % Remaining after 2 h incubation Human
Protocol: (§1) % Remaining after 2 h incubation
(§2) Compound Chemical Structure
(§3) Table S1. Microsomal stability of some pyrazolo[1,5-a]pyrimidin-7(4H)-one derivatives
(§4) Microsomal stability was tested in microsomes from liver of female mouse (M9566 from Sigma-Aldrich)a or microsomes
(§5) from human liver (M0317 from Sigma-Aldrich)b.

[2] = tested on: Mtb H37Rv; test: MIC under iron-depleted (DFO) or iron-replete (FeCl3) conditions; type: cell-based, Mycobacterium tuberculosis
[3] = tested on: J774 cells; test: Murine macrophage cytotoxicity (luminescence-based); settings: Mus musculus; murine macrophage cell line J774, 24 h; read-out: IC50 against J774 cells
[4] = Microsomal stability, mouse; type: in vitro ADME; settings: liver microsomes of female mouse, read-out: % Remaining after 2 h incubation Mouse
Protocol: as §1, §2, §3, §4, §5

[5] = tested on: Mtb H37Rv WT; test: microbe, parasite or virus in culture; type: cell-based; settings: Mycobacterium tuberculosis
[6] = in vitro; settings: human, 24 h
[7] = tested on: cell wall responsive iniBAC promoter (piniB-LUX reporter strain); type: cell-based, Mycobacterium tuberculosis
[8] = tested on: DNA damage responsive recA and radA reporters; type: cell-based, Mycobacterium tuberculosis
[9] = tested on: Mtb H37Rv; test: microbe, parasite or virus in culture; type: cell-based, Mycobacterium tuberculosis; settings: for MIC: Mycobacterium tuberculosis, H37RV
[10] = tested on: intramacrophage Mtb H37Rv; test: Ex vivo efficacy against intracellular Mtb in J774 macrophages; type: cell-based, Mycobacterium tuberculosis
[11] = tested on: Mtb strain H37Rv; test: MIC against Mtb H37Rv under various media/carbon sources; type: cell-based; settings: Mycobacterium tuberculosis
[12] = tested on: iron uptake of Mtb H37Rv; test: 55Fe iron uptake by Mtb; type: cell-based, Mycobacterium tuberculosis; settings: 55Fe-labelled medium; 1 at 10 μM, DFO at 39 μM
[13] = Cytotoxicity (IC50) Galactose, HepG2 cells in DMEM/10% FBS with galactose
[14] = Cytotoxicity (IC50) Glucose, HepG2 cells in DMEM/10% FBS supplemented with glucose
[15] = pH 6, read-out: MIC nitrate/butyrate

SMILES	remaining at 2 h [1]	increase in potency under iron-depleted conditions (MIC ratio) [2]	IC50 [3]	remaining at 2 h [4]	MIC [5]	IC50 [6, 13]	IC50 [6, 14]	reporter gene assay cell wall [7]	reporter gene assay DNA damage [8]	improvement in MIC compared to the initial hit 1 [9]	MIC ([9]; read-out: MIC in 7H9 ADC)	MIC ([9]; read-out: MIC in 7H9 GCas)	MIC ([11]; GAST/Fe, read-out: MIC GAST)	MIC [11, 15]	MIC ([11]; read-out: MIC 7H9)	MIC ([11]; read-out: MIC Chol)	MIC ([11]; read-out: MIC GBSA/DBSA)	further results
Cc1nn2c(=O)cc(-c3ccc(F)c(F)c3)[nH]c2c1-c1ccccc1 [Compound P19, 5-(3,4-Difluorophenyl)-2-methyl-3-phenylpyrazolo[1,5-a]pyrimidin-7(4H)-one]	77%	≤ 2 fold	29.6 ± 1.2 µM	66%	0.78 µM (≈ 0.263 µg/mL)	58.9 µM	> 100 µM	no	no	5 fold	2.73 µM (≈ 0.921 µg/mL)	1.56 µM (≈ 0.526 µg/mL)	1.2 µM (≈ 0.405 µg/mL)	1.56 µM (≈ 0.526 µg/mL)	3.13 µM (≈ 1.06 µg/mL)	3.13 µM (≈ 1.06 µg/mL)	3.13 µM (≈ 1.06 µg/mL)	reduction of bacterial burden [10]: ~0.5 logs
Cc1nn2c(=O)cc(-c3ccc(Cl)c(Cl)c3)[nH]c2c1-c1ccc(F)cc1 [Compound P24, 5-(3,4-Dichlorophenyl)-3-(4-fluorophenyl)-2-methylpyrazolo[1,5-a]pyrimidin-7(4H)-one]		≤ 2 fold	22.5 ± 2.1 µM		1.56 µM (≈ 0.606 µg/mL)	38.7 µM	> 100 µM			8 fold	2.34 µM (≈ 0.908 µg/mL)	3.12 µM (≈ 1.21 µg/mL)						
COc1ccc(-c2cc(=O)n3nc(C)c(-c4ccc(F)cc4)c3[nH]2)cc1 [Compound 4, 3-(4-Fluorophenyl)-5-(4-methoxyphenyl)-2-methylpyrazolo[1,5-a]pyrimidin-7(4H)-one, reference compound]		≤ 2 fold			1.56 µM (≈ 0.545 µg/mL)			no	no		9.38 µM (≈ 3.28 µg/mL)	3.12 µM (≈ 1.09 µg/mL)	3.13 µM (≈ 1.09 µg/mL)	6.25 µM (≈ 2.18 µg/mL)	12.5 µM (≈ 4.37 µg/mL)	12.5 µM (≈ 4.37 µg/mL)	9.4 µM (≈ 3.28 µg/mL)	
CC(=O)N(O)CCCCCNC(=O)CCC(=O)N(O)CCCCCNC(=O)CCC(=O)N(O)CCCCCN [DFO, desferrioxamine, reference compound]																		MIC ([2]; Mycobacterium tuberculosis, H37RV, MIC of the iron-modulating additive itself): 250 µM; effect on iron uptake [12]: completely inhibited uptake
O=c1cc(CC2CCCCC2)[nH]c2c(-c3ccc(Cl)cc3)cnn12 [Compound 2, 3-(4-Chlorophenyl)-5-(cyclohexylmethyl)pyrazolo[1,5-a]pyrimidin-7(4H)-one, reference compound]		greater efficacy under iron-limited conditions			0.39 µM (≈ 0.133 µg/mL)			no	no		9.38 µM (≈ 3.21 µg/mL)	0.78 µM (≈ 0.267 µg/mL)	19 µM (≈ 6.49 µg/mL)	6.25 µM (≈ 2.14 µg/mL)	19 µM (≈ 6.49 µg/mL)	12.5 µM (≈ 4.27 µg/mL)	4.7 µM (≈ 1.61 µg/mL)	
Cc1nn2c(=O)cc(-c3ccc(F)c(F)c3)[nH]c2c1-c1ccc(Cl)cc1 [Compound P25, 3-(4-Chlorophenyl)-5-(3,4-difluorophenyl)-2-methylpyrazolo[1,5-a]pyrimidin-7(4H)-one]			20.2 ± 0.8 µM			52.6 µM	94.3 µM			8 fold	1.95 µM (≈ 0.725 µg/mL)	3.12 µM (≈ 1.16 µg/mL)						reduction of bacterial counts [10]: 1.5 orders of magnitude and 2 orders of magnitude
Cc1nn2c(=O)cc(-c3ccccc3)[nH]c2c1-c1ccccc1 [Compound 1, 2-Methyl-3,5-diphenylpyrazolo[1,5-a]pyrimidin-7(4H)-one]	66%			61%	1.2 µM (≈ 0.362 µg/mL)	> 100 µM	> 100 µM	no	no		12.5 µM (≈ 3.77 µg/mL)	3.12 µM (≈ 0.94 µg/mL)	2.3 µM (≈ 0.693 µg/mL)	12.5 µM (≈ 3.77 µg/mL)	12.5 µM (≈ 3.77 µg/mL)	9.4 µM (≈ 2.83 µg/mL)	12.5 µM (≈ 3.77 µg/mL)	effect on iron uptake [12]: did not inhibit iron uptake
Cc1nn2c(=O)cc(-c3ccc(Cl)c(Cl)c3)[nH]c2c1-c1ccccc1 [Compound P20, 5-(3,4-Dichlorophenyl)-2-methyl-3-phenylpyrazolo[1,5-a]pyrimidin-7(4H)-one]	55%			41%		55.7 µM	> 100 µM			5 fold	2.34 µM (≈ 0.866 µg/mL)	1.56 µM (≈ 0.578 µg/mL)						
